Measured values reported in PMC11758266, “Lipid-Modulated, Graduated Inhibition of N-Glycosylation Pathway Priming Suggests Wide Tolerance of ER Proteostasis to Stress” (ACS Central Science, 2024).
“Also recorded” adds a separate entry of the source.

Key:
His-tagged IgG-Fc domain = experiment: In cell glycoprotein inhibition assay (IgG-Fc expression, SDS-PAGE and Western blot); format: cell-based, human; settings: HEK293T cells, 3 days, analogue 10 µM down to 0.5 nM (Tun-8E,2G 300 µM down to 15 nM), Figure S13
ATF4 [1] = experiment: ATF4 high-content imaging assay in primary human dermal fibroblasts; format: cell-based; settings: 6 h, Figures S8–S12
Description: A targeted panel of tunicamycin analogues was tested in the ATF4 High Content Imaging assay to assess their ER stress generating ability in a primary cell line. Normal adult human dermal fibroblasts (NHDF-Ad, Lonza) were plated in a 96-well Phenoplate (PerkinElmer) at a seeding density of 10,000 cells per well in fibroblast growth medium (containing fibroblast basal medium, 10% FBS, 0.1% insulin, 0.1% hFGF-B, 0.1% Gentamicin/Amphotericin) and incubated at 37°C, 5% CO2. Treatment with pre-diluted compounds was performed after 24 hrs with final concentrations ranging from 10 µM – 5 nM (final DMSO concentration was 0.3%). Low control (0.3% DMSO final conc.) and high control (0.3 µM tunicamycin final conc.) wells were again included for assay normalization. Treated cells were incubated for 6 hrs at 37°C, 5% CO2 before fixing (4% PFA in PBS, 20 min at room temperature followed by washing (3x) with PBS). Direct ATF4 immunofluorescence staining was then performed, whereby cells were treated with a Coralite Plus 488-conjugated ATF4 Polyclonal antibody (CL488-10835, Proteintech) in a 1:100 dilution of Perm-block buffer (10% FBS, 0.3% TritonX-100 in PBS) for 2 hrs. Nuclei staining was then performed with DRAQ5 dye (ab108410, Abcam) at 1:1000 in PBS. Plates were imaged on a Leica SP8 confocal microscope equipped with 488 nm and 633 nm excitation and images were analysed using script-based algorithms as described for HEK cells above. […]

ATF4 [2] = experiment: HEK-ATF4 high-content immunofluorescence imaging assay (ER stress); format: cell-based, human; settings: for ER stress response in the phenotypic assay (in words): HEK293 cells, 6 h, nuclear ATF4 as marker
Description: Here, the nuclear localization of the transcription factor ATF4 (which leads to subsequent expression of CHOP and cell death) was used as a phenotypic marker of ER stress (Figure 3A). Use of multi(384)-well plate format allowed wild-type HEK cells to be treated with analogues over a titrating concentration range of 0.5 nM to […] for 6 h in a quantitative manner (Figure 3C). After fixation with paraformaldehyde, high-content cellular fluorescence microscopy imaging was used to both determine the site and quantify the location of ATF4[32] (Figure 3B,C). Thus, immunofluorescent staining of the cells exploited a primary rabbit anti-ATF4 (D4B8) antibody followed by a solution containing a secondary Alexa Fluor 488-labeled goat anti-rabbit IgG along with Hoechst 33342 nuclei stain. In this way, confocal fluorescence microscopy at excitation wavelengths of 405 and 488 nm produced, as a direct primary readout, the intensity of ATF4 located in the nucleus as well as the ratio of ATF4 located between the nucleus (colocalized with Hoechst) and cytoplasm (see Figure 3B,C for representative images and the Supporting Information for channel-by-channel images). Concurrent readout of the number of stained nuclei (Hoechst nuclei stain) in live cells was also used as an internal cytotoxicity measure. This high-content method allowed detailed quantitative cellular dose responses to be determined with precision (Figure 3D). […] Consistent with ATF4 as a driver of apoptosis, this also drove cell death at higher concentrations (EC50 ∼ 10 μM) similar to those determined previously.[33] This therefore identified a clear dose–response window of more than 2 orders of magnitude over such key downstream events.
Figure 3 High-content phenotypic screen for putative ER stress inducers. (A) Schematic of the screening process. 12,000 HEK293 WT cells per well were plated into a 384-well plate and incubated at 37 °C for 24 h. Compounds were serially diluted and added to the plate and incubated for 6 h at 37 °C, at which point the cells were fixed with 4% PFA in PBS. The plates were then submitted to indirect ATF4 immunofluorescence, in which the plate was incubated with a primary anti-ATF4 (D4B8) antibody, followed by Alexa Fluor 488-labeled goat anti-rabbit secondary antibody and Hoechst 33342 dye. Plates were imaged using an OPERA-Phenix high-content imaging platform with fluorescence excitation at 405 and 488 nm. The images were analyzed, and the nuclear intensity of ATF4 for each cell was quantitatively determined (gray filled circles, left-hand axis in (D)) as well as the count of live cells (black squares, right-hand axis in (D)). Created in BioRender. https://BioRender.com/z32w873 (B) Representative section of imaging (red = nuclei, green = ATF4) for a given cellular population at a single dose (here exposed to tunicamycin at 41.2 nM). (C) Representative series panels of dose–response images after exposure to three different Tun-XE,YG analogues and DMSO control. (D) Corresponding resulting quantification of the high-throughput microscopy assay displaying the live cell count (black, right axis) and the nuclear intensity of ATF4 (gray, left axis) of tunicamycin and two lipid altered analogues, one with a large lipid at the gating position (Tun-9E,9G) and other with a short lipid at this position (Tun-8E,2G). See the Supporting Information for full details.
Supplementary Phenotypic Screening Methods
Tunicamycin analogues were tested in the HEK-ATF4 High Content Imaging assay to assess their ER stress generating ability. Wild-type HEK293 cells were plated in 384-well imaging assay plates at a density of 12,000 cells per well in growth medium (containing DMEM/F12, 10% FBS, 2 mM L-Glutamine, 100 U/mL Penicillin - 100µg/mL Streptomycin) and incubated at 37°C, 5% CO2. 24-hrs later, the medium was changed to 50 µl assay medium per well (DMEM/F12, 0.3% FBS, 2mM L-Glutamine, 100 U/mL Penicillin – 100 µg/mL […]
Streptomycin). […]

Compound | glycosylation state of expressed IgG-Fc (in words) (His-tagged IgG-Fc domain) | increase in ATF4 (in words) (ATF4 [1]) | ER stress response in the phenotypic assay (in words) (ATF4 [2]) | glycosylation state of expressed IgG-Fc (in words) (His-tagged IgG-Fc domain; listed as Tun) | EC50 (ATF4 [2]; wild-type HEK293 cells, 6 h treatment, read-out: EC50, increase in ATF4 in the nucleus)
CCCCCCCCC(=O)N[C@H]1[C@H](O[C@H]2O[C@H](CO)[C@@H](O)[C@H](O)[C@H]2NC(=O)CCCCCCCC)O[C@H](C[C@@H](O)[C@H]2O[C@@H](n3ccc(=O)[nH]c3=O)[C@H](O)[C@@H]2O)[C@H](O)[C@@H]1O [Tun-9E,9G] | expression of intact glycosylated protein | only Tun itself leads to an increase in ATF4 | did not induce any ER stress response |  | 
tunicamycin [reference compound] | unglycosylated IgG Fc protein is observed | leads to an increase in ATF4 | clear ER stress response | expression of non-glycosylated IgG-Fc | 44 ± 3.2 nM
CCCCCCCCC(=O)N[C@H]1[C@H](O[C@H]2O[C@H](CO)[C@@H](O)[C@H](O)[C@H]2NC(=O)CC(C)C)O[C@H](C[C@@H](O)[C@H]2O[C@@H](n3ccc(=O)[nH]c3=O)[C@H](O)[C@@H]2O)[C@H](O)[C@@H]1O [Tun-9E,i5G] |  |  | did not induce ER stress |  | 
CCCCCCCC(=O)N[C@H]1[C@H](O[C@H]2O[C@H](CO)[C@@H](O)[C@H](O)[C@H]2NC(C)=O)O[C@H](C[C@@H](O)[C@H]2O[C@@H](n3ccc(=O)[nH]c3=O)[C@H](O)[C@@H]2O)[C@H](O)[C@@H]1O [Tun-8E,2G] | unglycosylated IgG Fc protein is observed; also recorded: expression of non-glycosylated IgG-Fc | only Tun itself leads to an increase in ATF4 | did not induce ER stress |  | 
CCCCCCCCC(=O)N[C@H]1[C@@H](O[C@@H]2O[C@H](C[C@@H](O)[C@H]3O[C@@H](n4ccc(=O)[nH]c4=O)[C@H](O)[C@@H]3O)[C@H](O)[C@H](O)[C@H]2NC(=O)CCC)O[C@H](CO)[C@@H](O)[C@@H]1O [Tun-4E,9G] |  |  | did not induce any ER stress response |  | 
